Data published in US7271165B2, “Rifamycin analogs and uses thereof” (priority 2003, dated 2007).
≈ marks a conversion by molar mass, not a printed value.

Columns and labels:
E coli = assay: MIC assay, E coli; type: cell-based
S. aureus = assay: MIC assay, S. aureus; type: cell-based, Staphylococcus aureus
E. faecalis = assay: MIC assay, E. faecalis; type: cell-based, Enterococcus faecalis
S. pneumo. = assay: MIC assay, S. pneumo.; type: cell-based, Streptococcus pneumoniae
H. flu = type: cell-based, H. influenza; conditions: H. flu

| SMILES | MIC (μg/mL) E coli (E coli) | MIC (μg/mL) S. aureus (S. aureus) | MIC (μg/mL) E. faecalis (E. faecalis) | MIC (μg/mL) S. pneumo. (S. pneumo.) | MIC (μg/mL) H. flu (H. flu) |
| --- | --- | --- | --- | --- | --- |
| COC1C=COC2(C)Oc3c(C)c(O)c4c(=O)c(c5oc6cc(N7CCC(NC(=O)N8CCN(C)CC8)CC7)cc(O)c6nc-5c4c3C2=O)NC(=O)C(C)=CC=CC(C)C(O)C(C)C(O)C(C)C(OC(C)=O)C1C (stereo not drawn) [Compound 50, 3′-hydroxy-5′-[4-(4-methylpiperazinylcarbonyl)amino-1-piperidinyl]benzoxazinorifamycin] | >8 µg/mL | 0.03 µg/mL (≈ 0.0293 µM) | 4 µg/mL (≈ 3.9 µM) | 0.00012 µg/mL (≈ 0.000117 µM) | 0.5 µg/mL (≈ 0.488 µM) |
| CCOC(=O)NCC1CCN(c2cc(O)c3nc4c5c6c7c(C)c(O)c5c(=O)c(c-4oc3c2)NC(=O)C(C)=CC=CC(C)C(O)C(C)C(O)C(C)C(OC(C)=O)C(C)C(OC)C=COC(C)(O7)C6=O)CC1 (stereo not drawn) [Compound 51] | 8 µg/mL (≈ 8.12 µM) | 0.06 µg/mL (≈ 0.0609 µM) | 8 µg/mL (≈ 8.12 µM) | 0.002 µg/mL (≈ 0.00203 µM) | 0.25 µg/mL (≈ 0.254 µM) |
| COC1C=COC2(C)Oc3c(C)c(O)c4c(=O)c(c5oc6cc(N7CCC(NC(=O)OC(C)(C)C)CC7)cc(O)c6nc-5c4c3C2=O)NC(=O)C(C)=CC=CC(C)C(O)C(C)C(O)C(C)C(O)C1C (stereo not drawn) [Compound 52, 25-O-deacetyl-3′-hydroxy-5′-[4-(2,2-dimethylethyl)carbamyl-1-piperidinyl]benzoxazinorifamycin] | >8 µg/mL | 0.015 µg/mL (≈ 0.0157 µM) | 4 µg/mL (≈ 4.18 µM) | 0.00025 µg/mL (≈ 0.000261 µM) | 0.12 µg/mL (≈ 0.125 µM) |
| COC1C=COC2(C)Oc3c(C)c(O)c4c(=O)c(c5oc6cc(N7CC8C(C7)C8N(C)C)cc(O)c6nc-5c4c3C2=O)NC(=O)C(C)=CC=CC(C)C(O)C(C)C(O)C(C)C(OC(C)=O)C1C [Compound 53, 3′-hydroxy-5′-[6-N,N-dimethylamino-(1R,5S)-3-azabicyclo[3.1.0]hex-3-yl]benzoxazinorifamycin] | >8 µg/mL | 0.06 µg/mL (≈ 0.0649 µM) | 4 µg/mL (≈ 4.32 µM) | 0.008 µg/mL (≈ 0.00865 µM) | 2 µg/mL (≈ 2.16 µM) |
| COC1C=COC2(C)Oc3c(C)c(O)c4c(=O)c(c5oc6cc(N7CC8C(C7)C8N(C)C)cc(O)c6nc-5c4c3C2=O)NC(=O)C(C)=CC=CC(C)C(O)C(C)C(O)C(C)C(O)C1C [Compound 54, 3′-hydroxy-5′-[6-N,N-dimethylamino-(1R,5S)-3-azabicyclo[3.1.0]hex-3-yl]benzoxazinorifamycin] | >8 µg/mL | 0.008 µg/mL (≈ 0.00906 µM) | 2 µg/mL (≈ 2.26 µM) | 0.0005 µg/mL (≈ 0.000566 µM) | 0.25 µg/mL (≈ 0.283 µM) |
| COC1C=COC2(C)Oc3c(C)c(O)c4c(=O)c(c5oc6cc(N7CCC(CNC(C)=O)CC7)cc(O)c6nc-5c4c3C2=O)NC(=O)C(C)=CC=CC(C)C(O)C(C)C(O)C(C)C(OC(C)=O)C1C (stereo not drawn) [Compound 55, 3′-hydroxy-5′-[4-acetylaminomethyl-1-piperidinyl]benzoxazinorifamycin] | 8 µg/mL (≈ 8.38 µM) | 0.008 µg/mL (≈ 0.00838 µM) | 1 µg/mL (≈ 1.05 µM) | 0.00025 µg/mL (≈ 0.000262 µM) | 0.5 µg/mL (≈ 0.524 µM) |
| COC1C=COC2(C)Oc3c(C)c(O)c4c(=O)c(c5oc6cc(N7CCC(CNC(C)=O)CC7)cc(O)c6nc-5c4c3C2=O)NC(=O)C(C)=CC=CC(C)C(O)C(C)C(O)C(C)C(O)C1C (stereo not drawn) [Compound 56, 25-O-deacetyl-3′-hydroxy-5′-[4-acetylaminomethyl-1-piperidinyl]benzoxazinorifamycin] | 8 µg/mL (≈ 8.76 µM) | 0.004 µg/mL (≈ 0.00438 µM) | 0.12 µg/mL (≈ 0.131 µM) | 0.001 µg/mL (≈ 0.0011 µM) | 0.25 µg/mL (≈ 0.274 µM) |
| COC1C=COC2(C)Oc3c(C)c(O)c4c(=O)c(c5oc6cc(N7CCC(c8ccccc8)CC7)cc(O)c6nc-5c4c3C2=O)NC(=O)C(C)=CC=CC(C)C(O)C(C)C(O)C(C)C(OC(C)=O)C1C (stereo not drawn) [Compound 57, 3′-hydroxy-5′-[4-phenyl-1-piperidinyl]benzoxazinorifamycin] | 8 µg/mL (≈ 8.33 µM) | 0.008 µg/mL (≈ 0.00833 µM) | 2 µg/mL (≈ 2.08 µM) | 0.0005 µg/mL (≈ 0.000521 µM) | 0.5 µg/mL (≈ 0.521 µM) |
| COC1C=COC2(C)Oc3c(C)c(O)c4c(=O)c(c5oc6cc(N7CC8CCCN(C)C8C7)cc(O)c6nc-5c4c3C2=O)NC(=O)C(C)=CC=CC(C)C(O)C(C)C(O)C(C)C(OC(C)=O)C1C [Compound 58, 3′-hydroxy-5′-[1-methyl-(4aS,7aS)-octahydro-6H-pyrrolo[3,4-b]pyridin-6-yl]benzoxazinorifamycin] | >8 µg/mL | 0.03 µg/mL (≈ 0.0319 µM) | 1 µg/mL (≈ 1.06 µM) | 0.004 µg/mL (≈ 0.00426 µM) | 0.25 µg/mL (≈ 0.266 µM) |
